These results are taken from US6440996B1, “Monomeric and dimeric heterocycles, and therapeutic uses thereof” (priority 1998, dated 2002).

Molecules are shown by their SMILES. Where two headings read alike, the source gives them in different places.

Series [1] concerns the target T1, dopamine transporter (Rattus norvegicus, UniProt P23977).
T1 construct: from tissue; P2 synaptosomes for uptake
The series is described as follows: [3H]WIN 35,428 binding to rat striatal membranes / dopamine transporter binding (DAT). The procedure:
(§1) Determination of inhibitory binding potencies of analogues at dopamine, serotonin, and norepinephrine transporters are carried out using standard receptor binding assays which are known in the art.
A. Dopamine Transporter Binding (DAT)

Series [2] can be described thus: Drug discrimination, substitution for amphetamine. Format: in vivo. The note with it: for response rates across test doses: amphetamine discrimination.
For a further series, the system named is rats. Kind of series: Intravenous drug self-administration. Type of series: in vivo. The note with it: for self-administration responding: i.v., FR10, cocaine 1 mg/kg/infusion, analog 2 0.3-3 mg/kg/infusion, analog 3 0.125-0.5 mg/kg infusion, vs saline extinction. The source says:
J. Neurosci., 16, 7416-7427.
Rats were initially trained to lever press for food pellets in standard operant boxes. Following lever press training, rats were implanted with polyvinyl chloride catheters into femoral veins under halothane anesthesia (2-3% in medical grade oxygen) and were allowed to recover for an additional 7 days before initiation of i.v. drug self-administration testing. During drug self-administration sessions, food pellets were no longer delivered, and instead intravenous injections of drugs were delivered by way of the catheter.
Following this second extinction test, self-administration of piperidine analog 2 was studied at doses of 1, 3, and 0.3 mg/kg/infusion in that order. Each dose was tested for five days. During all the re-acquisition test days, a priming infusion was given at the start of the session on each day.

Series [3] is described as follows: Drug discrimination, substitution for cocaine and co-administration with cocaine. Format: in vivo.
The test system of another series is Sprague-Dawley rats. The series is described as follows: Locomotor activity (distance traveled, stereotypic behavior). Type of series: in vivo.
The target in series [4] is norepinephrine transporter (Rattus norvegicus, UniProt Q9WTR4). The series is described as follows: Norepinephrine transporter binding (NET). The method, then:
as §1
C. Norepinephrine Transporter Binding (NET)
J. Med Chem., 36, 2886-2890.

The target of another series is serotonin transporter (Rattus norvegicus, UniProt P31652). The series is described as follows: Serotonin transporter binding (5-HTT). The method, then: as §1
serotonin transporter, sequence (P31652 whole entry): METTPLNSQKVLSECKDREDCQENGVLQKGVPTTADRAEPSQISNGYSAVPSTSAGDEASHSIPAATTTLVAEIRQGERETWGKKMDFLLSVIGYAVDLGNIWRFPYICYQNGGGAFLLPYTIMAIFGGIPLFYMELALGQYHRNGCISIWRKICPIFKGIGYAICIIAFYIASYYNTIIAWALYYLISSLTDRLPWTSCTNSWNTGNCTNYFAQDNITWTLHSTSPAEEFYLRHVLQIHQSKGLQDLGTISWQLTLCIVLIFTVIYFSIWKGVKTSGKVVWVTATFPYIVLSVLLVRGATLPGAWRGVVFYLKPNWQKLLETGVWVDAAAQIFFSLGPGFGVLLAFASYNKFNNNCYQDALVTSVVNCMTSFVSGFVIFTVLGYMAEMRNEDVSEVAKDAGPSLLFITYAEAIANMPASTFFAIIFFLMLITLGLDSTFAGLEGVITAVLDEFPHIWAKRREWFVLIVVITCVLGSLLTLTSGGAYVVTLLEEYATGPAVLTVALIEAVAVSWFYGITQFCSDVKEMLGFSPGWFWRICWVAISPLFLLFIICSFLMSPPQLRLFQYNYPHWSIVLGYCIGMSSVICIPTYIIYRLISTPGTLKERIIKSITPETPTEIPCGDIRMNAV
B. Serotonin Transporter Binding (5-HTT)
Mol. Pharmacol., 39, 339.

The target in series [5] is striatal dopamine transporter (Macaca mulatta, UniProt Q7JHP9). Kind of series: PET evaluation of 11C-labeled isomers. The method, then:
The products were purified by HPLC on a C-18 cartridge eluted with MeOH: phosphate/triethylamine buffer, pH 7.2 (60:40).
After passage through a 0.22 μm filter, the sterile products were administered to three Rhesus monkeys and dynamic PET images were acquired over 90 minutes.

Series [6] concerns the target T1, dopamine transporter. The series is described as follows: Inhibition of high-affinity [3H]dopamine uptake into rat striatal nerve endings (synaptosomes). Format: biochemical. The procedure: A. [^3H]Dopamine Uptake Studies
The effect of candidate compounds in antagonizing dopamine high-affinity uptake was determined using a method previously employed. For [^3H]DA uptake, dissected rat striata were homogenized with a Teflon-glass pestle in ice-cold 0.32 M sucrose and centrifuged for 10 min at 1000×g. The supernatant was centrifuged at 17,500×g for 20 min. This P2 synaptosomal pellet was resuspended in 30 volumes of ice-cold modified KRH buffer. An aliquot of the synaptosomal suspension was preincubated with the buffer and drug for 30 min at 37° C., and uptake initiated by the addition of [^3H]dopamine (5 nM, final concentration). After 5 min, uptake was terminated by adding 5 mL of cold buffer containing glucosamine as a substitute for NaCl and then finally by rapid vacuum filtration over GF-C glass fiber filters, followed by washing with two 5 mL volumes of ice-cold, sodium-free buffer. Radioactivity retained on the filters was determined by liquid scintillation spectrometry. […] It is identical to that calculated by subtracting the mean of identical tubes incubated at 0° C.

The subject of series [7] is dopamine transporter. Particulars: cited from earlier work; for protection from the effect of 10 mM N-ethylmaleimide: 10 μM cocaine, 300 μM dopamine, d-amphetamine.
[8] abbreviates: Table 2, read-out: DAT IC50 (nm).
Where [9] appears, read: Table 2, unit inferred, read-out: Dopamine Uptake.
[10] abbreviates: rat striatal synaptosomes, Table 1, read-out: IC50 (nM) [3H]dopamine uptake.
Where [11] appears, read: rat striatal membranes, Table 1, read-out: IC50 (nM) [3H]WIN 35,428 binding.

norepinephrine transporter, sequence (Q9WTR4 1-597): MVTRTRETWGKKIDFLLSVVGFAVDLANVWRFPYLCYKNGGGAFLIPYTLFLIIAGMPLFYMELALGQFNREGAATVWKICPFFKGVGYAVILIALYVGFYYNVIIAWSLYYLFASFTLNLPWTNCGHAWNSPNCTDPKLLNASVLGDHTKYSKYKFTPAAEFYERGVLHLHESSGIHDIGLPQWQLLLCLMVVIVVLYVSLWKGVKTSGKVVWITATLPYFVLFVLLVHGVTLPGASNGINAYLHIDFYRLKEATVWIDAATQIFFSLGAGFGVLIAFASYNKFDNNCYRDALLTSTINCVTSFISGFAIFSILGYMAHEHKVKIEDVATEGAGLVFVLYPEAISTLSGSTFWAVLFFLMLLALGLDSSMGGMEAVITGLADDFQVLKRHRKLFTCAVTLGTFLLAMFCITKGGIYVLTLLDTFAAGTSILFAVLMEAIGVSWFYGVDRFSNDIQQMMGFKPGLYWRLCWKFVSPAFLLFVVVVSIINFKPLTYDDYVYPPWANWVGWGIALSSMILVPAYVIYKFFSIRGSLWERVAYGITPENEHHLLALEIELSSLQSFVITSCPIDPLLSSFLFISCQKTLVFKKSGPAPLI
T1 sequence (P23977 whole entry): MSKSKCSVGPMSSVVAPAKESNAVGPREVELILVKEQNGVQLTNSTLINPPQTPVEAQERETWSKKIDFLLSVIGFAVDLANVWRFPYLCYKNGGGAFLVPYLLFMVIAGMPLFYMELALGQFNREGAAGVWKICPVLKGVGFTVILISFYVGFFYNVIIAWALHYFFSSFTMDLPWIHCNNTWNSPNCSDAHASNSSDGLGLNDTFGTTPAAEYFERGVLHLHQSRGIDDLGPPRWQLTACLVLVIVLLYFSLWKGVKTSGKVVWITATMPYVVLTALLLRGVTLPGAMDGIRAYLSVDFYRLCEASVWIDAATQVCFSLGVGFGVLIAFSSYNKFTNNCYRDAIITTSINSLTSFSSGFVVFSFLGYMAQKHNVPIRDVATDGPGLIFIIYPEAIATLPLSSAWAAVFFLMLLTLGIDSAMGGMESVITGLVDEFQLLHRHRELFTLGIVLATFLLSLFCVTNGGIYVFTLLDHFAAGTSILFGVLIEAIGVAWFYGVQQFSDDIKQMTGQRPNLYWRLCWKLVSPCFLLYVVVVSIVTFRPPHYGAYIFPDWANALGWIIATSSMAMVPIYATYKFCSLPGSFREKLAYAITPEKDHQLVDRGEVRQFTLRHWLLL
striatal dopamine transporter, sequence (Q7JHP9 1-620): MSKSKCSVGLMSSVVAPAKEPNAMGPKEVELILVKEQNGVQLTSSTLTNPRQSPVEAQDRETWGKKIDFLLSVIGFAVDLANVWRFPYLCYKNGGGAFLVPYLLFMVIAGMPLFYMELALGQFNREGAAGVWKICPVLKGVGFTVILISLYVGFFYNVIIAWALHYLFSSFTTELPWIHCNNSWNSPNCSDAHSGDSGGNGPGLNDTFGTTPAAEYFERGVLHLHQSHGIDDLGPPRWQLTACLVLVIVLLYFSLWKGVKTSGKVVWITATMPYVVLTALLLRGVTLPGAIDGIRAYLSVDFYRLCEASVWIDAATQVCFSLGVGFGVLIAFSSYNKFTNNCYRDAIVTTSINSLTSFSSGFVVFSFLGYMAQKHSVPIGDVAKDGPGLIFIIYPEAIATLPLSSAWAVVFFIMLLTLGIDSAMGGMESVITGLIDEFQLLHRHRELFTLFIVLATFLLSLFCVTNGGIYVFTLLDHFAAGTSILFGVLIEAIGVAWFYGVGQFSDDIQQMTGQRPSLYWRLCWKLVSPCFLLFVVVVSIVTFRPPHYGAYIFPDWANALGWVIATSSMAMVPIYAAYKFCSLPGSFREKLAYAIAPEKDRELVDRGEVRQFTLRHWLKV

With `COC(=O)[C@@H]1CN(C)CC[C@H]1c1ccc(Cl)cc1` (racemic) [Compound 2, (±)-trans-Methyl 4-(4-Chlorophenyl)-1-methylpiperidine-3-carboxylate], the IC50 was 196 nM on dopamine transporter [1] (DAT IC50 (nm), Table 2) and 197 ± 7.9 nM on dopamine transporter [1] (IC50 (nM) [3H]WIN 35,428 binding, rat striatal membranes, Table 1). For the same compound, in series [2], the “response rates across test doses” value is given as “remained fairly stable”. Also, the maximum amphetamine-lever responding in series [2] (substitution tests) is 53%. For the same compound, in the series on rats (analog 2, all doses tested), the “number of infusions delivered vs saline extinction test” value is given as “not significantly different”. The self-administration responding result in the series on rats was “failed to restore”. For the same compound, the “drug choice and response rate performance on co-administration with cocaine” value in series [3] (analog 2 10 mg/kg plus cocaine 1.25 and 5 mg/kg, vs cocaine alone) was “did not significantly alter”. Moreover, the “response rates compared with cocaine (10 mg/kg)” value in series [3] (analog 2 5 and 10 mg/kg) was “substantially lower”. In series [3] (analog 2 5 and 20 mg/kg), the maximum cocaine-lever responding is on record as 40%. Moreover, in the series on Sprague-Dawley rats (90 minutes following the drug injection), the “time course of stereotypic response” value is recorded as “persistent at 90 minutes”. Also, in the series with Sprague-Dawley rats (i.p., cocaine 10 mg/kg, analog 2 3-20 mg/kg, vs saline control), the distance traveled result is “did not alter”. In the series with Sprague-Dawley rats (i.p., cocaine 10 mg/kg, analog 2 10 and 20 mg/kg), the “stereotypic behavior / stereotypic time” value is given as “small, statistically nonsignificant increase”.

`COC(=O)C1CN(C)CCC1c1cccc2ccccc12` (racemic) [Compound 73, (±)-Methyl 4β-(1-Naphthyl)-1-methylpiperidine-3β-carboxylate]: the melting point (usually the temperature, or range, at which the solid turns liquid) was in the range of 108 to 109 °C. The IC50 on dopamine transporter [1] (setting [8]) is 173 nM. In [4] (Table 2, read-out: NET IC50 (nm)), the IC50 was 2700 nM. The same compound came in with an IC50 on serotonin transporter (5-HTT IC50 (nm), Table 2) of 1310 nM.

In turn, `COC(=O)[C@@H]1CN(C)CC[C@@H]1c1ccc2ccccc2c1` (racemic) [Compound 74, (±)-Methyl 4β-(2-Naphthyl)-1-methylpiperidine-3β-carboxylate] yielded a melting point of 100 to 101 °C. The IC50 at dopamine transporter [1] (DAT IC50 (nm), Table 2) was determined as 13 nM. The compound further yielded an IC50 in series [4] of 2570 nM. At serotonin transporter (5-HTT IC50 (nm), Table 2), the IC50 came out at 107 nM.

For `COC(=O)C1CN(C)CCC1c1ccc(Br)cc1` (single isomer, unassigned; (+)) [Compound 69, (+)-Methyl 4β-(4-Bromophenyl)-1-methylpiperidine-3β-carboxylate], the melting point fell in the range of 125 to 126 °C. At dopamine transporter [1] (DAT IC50 (nm), Table 2), this compound registered an IC50 of 406 nM. Moreover, the IC50 in series [4] came to 21600 nM. Besides, the IC50 at serotonin transporter (5-HTT IC50 (nm), Table 2) came out at 4130 nM.

Compound `COC(=O)C1CN(CCCc2ccccc2)CCC1c1ccc(Cl)cc1` (single isomer, unassigned; (-)) [Compound 48, (−)-Methyl 4β-(4-Chlorophenyl)-1-(3-phenylpropyl)-piperidine-3β-carboxylate] came in with a melting point of 73 to 75 °C. At dopamine transporter [1] (DAT IC50 (nm), Table 2), this compound yielded an IC50 of 157 nM. The compound further registered an IC50 in [4] of 1150 nM. The compound further yielded an IC50 on serotonin transporter of 73200 nM.

With `COC(=O)C1CN(C)CCC1c1ccc(Br)cc1` (single isomer, unassigned; (-)) [Compound 63, (−)-Methyl 4β-(4-Bromophenyl)-1-methylpiperidine-3β-carboxylate], the melting point was 121 to 122 °C. This compound also yielded an IC50 at dopamine transporter [1] (DAT IC50 (nm), Table 2) of 3 nM. On serotonin transporter (5-HTT IC50 (nm), Table 2), this compound yielded an IC50 of 1100 nM.

For `C=Cc1ccc(C2CCN(C)CC2C(=O)OC)cc1` (single isomer, unassigned; (-)) [Compound 64, (−)-Methyl 4β-(4-Vinylphenyl)-1-methylpiperidine-3β-carboxylate], the melting point lay within 68 to 69 °C. In series [4], the IC50 amounted to 65800 nM. The IC50 at serotonin transporter (5-HTT IC50 (nm), Table 2) amounted to 13200 nM.

For the compound `COC(=O)C1CN(C)CCC1c1ccc(Cl)cc1` (single isomer, unassigned; isomer 4) [cis isomer, 4-(4-chlorophenyl)-3-carbomethoxy-N-methylpiperidine], the “brain accumulation of 11C-labeled tracer (PET)” value in series [5] (dynamic PET over 90 minutes) is “greater nonspecific accumulation in the cortex”.

As to `COC(=O)[C@@H]1CN(C)CC[C@@H]1c1ccc(Cl)cc1` [Compound 3, (−)-Methyl 4β-(4-Chlorophenyl)-1-methylpiperidine-3β-carboxylate], the IC50 stood at 85 nM at dopamine transporter [6] (setting [9]); 85.2 ± 2.6 nM at dopamine transporter [6] (setting [10]); 25 nM at dopamine transporter [1] (setting [8]); 24.8 ± 1.6 nM at dopamine transporter [1] (setting [11]); 1630 nM in series [4]. The self-administration responding entry with rats was “reliably self-administered”.

`CC(=O)OC[C@@H]1CN(C)CC[C@@H]1c1ccc(Cl)cc1` [Compound 7, (−)-3β-(Acetoxymethyl)-4β-(4-chlorophenyl)-1-methylpiperidine] registered a melting point of 76 °C. The IC50 at dopamine transporter [6] (setting [9]) was 63 nM. For the same compound, the IC50 on dopamine transporter [6] (setting [10]) came out at 62.9 ± 2.7 nM. The same compound came in with an IC50 on dopamine transporter [1] (DAT IC50 (nm), Table 2) of 10 nM. In addition, the IC50 at dopamine transporter [1] (setting [11]) came out at 44.7 ± 10.5 nM. Moreover, in [4], the IC50 was 233 nM.

Take `CCN1C(=O)C=CC1=O` [N-Ethyhmaleimide]: the “inhibition of the specific binding of [3H]mazindol” value in the series with dopamine transporter [7] (background) was “about 95%”.

Regarding `CC(N)Cc1ccccc1` (centres unmarked) [amphetamine, reference compound], the “response rates across test doses” value in series [2] is on record as “remained fairly stable”. In addition, the “substitution for the discriminative stimulus effects of amphetamine” value in series [2] (substitution tests) is “dose-dependent and complete substitution”.

As for `C[C@H](N)Cc1ccccc1` [d-amphetamine], in the series with dopamine transporter [7], the “protection from the effect of 10 mM N-ethylmaleimide” value was “neither 300 μM dopamine nor d-amphetamine afforded any significant protection”.

`NCCc1ccc(O)c(O)c1` [dopamine]: the “protection from the effect of 10 mM N-ethylmaleimide” value with dopamine transporter [7] is on record as “neither 300 μM dopamine nor d-amphetamine afforded any significant protection”.

Consider `COC(=O)C1CN(C)CCC1c1ccc(Cl)cc1` (stereo not drawn) [trans isomers, 4-(4-chlorophenyl)-3-carbomethoxy-N-methylpiperidine], for which the “striatal activity after unlabeled CFT” value in [5] (CFT given 60 minutes after injection) is “selective decrease in the striatal activity”.
